Laboratory results taken from the supplement of paper PMC10307832.

Columns and labels:
Carfilzomib + Tozasertib = compound: CC(C)C[C@H](NC(=O)[C@H](CCc1ccccc1)NC(=O)CN1CCOCC1)C(=O)N[C@@H](Cc1ccccc1)C(=O)N[C@@H](CC(C)C)C(=O)[C@@]1(C)CO1 [Carfilzomib] + Cc1cc(Nc2cc(N3CCN(C)CC3)nc(Sc3ccc(NC(=O)C4CC4)cc3)n2)n[nH]1 [Tozasertib] (partner 0.1 µM); assay: relative viability (nuclei count vs DMSO), 5 days (fraction); higher = more cells survive
How it was run: (§1)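 Relative viability equals treated-well nuclei counts divided by vehicle-well nuclei counts. Counts came from 4× images of lung cancer cell lines grown in 1536-well plates for 5 days after pin-tool dosing on the day after seeding. Dosing used one drug alone or a fixed anchor-drug dose plus five library-drug doses (not always all listed) in √10 steps, and values are medians of duplicate plates.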

Crizotinib + Navitoclax = compound: C[C@@H](Oc1cc(-c2cnn(C3CCNCC3)c2)cnc1N)c1c(Cl)ccc(F)c1Cl [Crizotinib] + CC1(C)CCC(c2ccc(Cl)cc2)=C(CN2CCN(c3ccc(C(=O)NS(=O)(=O)c4ccc(N[C@H](CCN5CCOCC5)CSc5ccccc5)c(S(=O)(=O)C(F)(F)F)c4)cc3)CC2)C1 [Navitoclax] (partner 0.5 µM); assay: as above
How it was run: as §1

| Cell Line | relative viability (Carfilzomib + Tozasertib; first compound 0.001 µM) | relative viability (Carfilzomib + Tozasertib; first compound 0.003162 µM) | relative viability (Carfilzomib + Tozasertib; first compound 0.01 µM) | relative viability (Carfilzomib + Tozasertib; first compound 0.03162 µM) | relative viability (Carfilzomib + Tozasertib; first compound 0.1 µM) | relative viability (Crizotinib + Navitoclax; first compound 0.01 µM) | relative viability (Crizotinib + Navitoclax; first compound 0.03162 µM) | relative viability (Crizotinib + Navitoclax; first compound 0.1 µM) | relative viability (Crizotinib + Navitoclax; first compound 0.3162 µM) | relative viability (Crizotinib + Navitoclax; first compound 1 µM) |
| --- | --- | --- | --- | --- | --- | --- | --- | --- | --- | --- |
| RERF-LC-KJ | 0.501 | 0.478 | 0.542 | 0.377 | 0.163 | 1.18 | 0.767 | 1.13 | 0.682 | 1.02 |
| SK-LU-1 | 0.342 | 0.371 | 0.343 | 0.0891 | 0.109 | 0.829 | 0.851 | 0.887 | 0.938 | 0.806 |
| SK-MES-1 | 0.939 | 1.07 | 0.998 | 0.725 | 0.136 | 1.2 | 1.29 | 1.25 |  | 1.2 |
| SW 1573 | 0.193 | 0.253 | 0.23 | 0.0683 | 0.051 | 0.683 |  | 0.97 | 0.945 | 0.932 |
| UMC-11 | 0.206 | 0.202 | 0.205 | 0.202 | 0.224 | 0.285 | 0.308 | 0.306 | 0.282 | 0.365 |
